US11407725B2 (The Board of Trustees of the University of Illinois, priority 2018, dated 2022)
Where “and” joins values, the source holds several entries; their conditions need not be identical. Equal entries are not always repeated.

How the values were obtained:
A549 cells = experiment: Flow cytometry of A549 cells with red-AlDeSense; assay type: cell-based
Method: For all cell lines, 200,000 cells in a single-cell suspension were transferred into 1.5 mL Eppendorf tubes. Cells were pelleted by centrifugation at 400 g for 5 minutes at room temperature. After removing the supernatant by aspiration, cells were resuspended in 300 μL premixed PBS supplemented with verapamil, probenecid, and novobiocin. […] Samples were immediately stored on ice. Cells were stained with red-AlDeSense or Ctrl-red-AlDeSense (100 μL of 4 μM dye solution; dyes were normalized by fluorescence spectroscopy). Samples were analyzed on a BD LSR II Flow Cytometry Analyzer using a 488 nm laser and a 550 LP and 610/30 filter set. Samples were analyzed every 5 minutes for 15 minutes, with the samples being placed back on ice between data collection. Data were analyzed on FCS Express 6.04.

ALDH1A1 = target: T1, ALDH1A1 (Homo sapiens, UniProt P00352); experiment: Fluorescence turn-on of AlDeSense with recombinant ALDH1A1; assay type: biochemical; conditions: fluorescent enhancement when treated with ALDH1A1; 1 μM probe
T1 construct: made in house
T1 sequence (P00352 1-501): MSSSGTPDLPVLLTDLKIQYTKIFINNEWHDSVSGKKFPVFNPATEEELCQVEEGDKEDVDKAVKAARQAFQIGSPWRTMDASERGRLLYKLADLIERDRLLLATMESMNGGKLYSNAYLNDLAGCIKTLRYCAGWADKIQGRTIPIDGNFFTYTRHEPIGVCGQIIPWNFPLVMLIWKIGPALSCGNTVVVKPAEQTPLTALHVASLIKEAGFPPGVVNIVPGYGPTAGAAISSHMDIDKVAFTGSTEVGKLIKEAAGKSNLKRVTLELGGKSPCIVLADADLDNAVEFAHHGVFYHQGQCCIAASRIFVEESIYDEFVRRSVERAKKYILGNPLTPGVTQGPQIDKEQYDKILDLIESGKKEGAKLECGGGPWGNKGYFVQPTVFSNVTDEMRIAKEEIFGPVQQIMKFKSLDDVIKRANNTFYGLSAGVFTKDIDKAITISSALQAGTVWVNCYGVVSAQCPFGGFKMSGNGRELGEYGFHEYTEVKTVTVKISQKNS
Method: Activation of AlDeSense was assessed using 20 units of each ALDH isoform. Activity was determined by activity measurements using each isoform's preferred substrate (1 unit=1 μmol substrate turned over/mol enzyme/min). Further details are in the supplementary information. All enzymatic reactions were performed in 50 mM triethanolamine buffer (pH 7.4, Thermo Fisher) with 2.5 mM NAD+(Alfa Aesar) and 5% v/v DMSO (Thermo Fisher) in a 1 mL quartz cuvette at room temperature.
AlDeSense activation was determined using fluorescence. Immediately before measurement, AlDeSense (1 μM) was added to a quartz cuvette. After vigorous mixing, the reaction was monitored at room temperature for 15 min. Fluorescence spectra were acquired according to following parameters: λex=498 nm, and emission range=505-580 nm. All scans were normalized to the signal from AlDeSense in 50 mM TEA and 2.5 mM NAD+(without enzyme). Endpoint measurements at 15 min were performed in triplicate and reported as the averages±standard deviation.

B16F0 melanoma cells = experiment: B16F0 melanoma confocal imaging (e-CSC vs non-CSC); assay type: cell-based, murine
Method: B16F0 Melanoma Confocal Imaging. B16F0 murine melanoma cells were cultured for 5 days on polyacrylamide hydrogels with or without spiral patterns as described previously (Drug Discov Today 2014, 19, 1953). The coverslips on which the hydrogels and cells were mounted were transferred to a glass-bottomed dish for confocal imaging, leaving the cells intact. Solutions of either 2 μM AlDeSense AM or 2 μM Ctrl-AlDeSense AM in PBS were added to the two types of cells. The cells were incubated at room temperature for 1 h and then immediately imaged. Confocal imaging was performed on a Zeiss LSM700 Confocal Microscope, utilizing the 488 nm laser line to excite AlDeSense AM and the 20×/0.8 objective. Three different coverslips of cells were imaged for each set of conditions and at least 6 μmages were taken for each coverslip. Using ImageJ, ROIs were drawn around areas covered with cells and mean fluorescence values were measured for each image.

**Q.** For `Cc1cc(C=O)c(F)c(F)c1C1=C2C=CC(=O)C=C2[Si](C)(C)c2cc(O)ccc21`, which “extent of red-AlDeSense activation with DEAB” value (A549 cells; A549 cells, plus 20 μM DEAB) is on record?
**A.** Its value is 67.8±3.4%.

**Q.** What about the “A549 cells displaying high ALDH1A1 activity” value (A549 cells; flow cytometry, 1 μM dye) of the same molecule?
**A.** The value was 78.1±0.3%.

**Q.** Which results are given for `Cc1cc(C=O)ccc1-c1c2cc(F)c(=O)cc-2oc2cc(O)c(F)cc12` [AlDeSense]?
**A.** Turn-on (fold) (ALDH1A1): 20 fold and 20.0 fold; brightness of e-CSCs versus e-CSCs treated with Ctrl-AlDeSense (B16F0 melanoma cells): 9.0 fold; brightness of e-CSCs versus non-CSCs (B16F0 melanoma cells; both stained with AlDeSense): 11.3 fold
